# Experimental data from ChEMBL document CHEMBL3885861, “Open TG-GATES”.
# Species on record: Rattus norvegicus
# Assay: Open TG-GATES - Regimen: Daily Repeat
# Format: toxicity, organism-based, Sprague-Dawley
# Design: regimen Daily Repeat, gender Male, age 6 weeks
# Conditions: in vivo, po, route gavage; for KIDNEY_L / KIDNEY_R / KIDNEY_TOTAL: tissue Kidney; for ALP / ALT / AST / BUN / CRE / Ca / Cl / DBIL / GLC / IP / K / PL / RALB / TBIL / TC / TG / TP / gamma-GTP: tissue Plasma
# [1] = 60 mg/kg, 72 h, tissue Blood, dose level Middle, time 3 day
# [2] = 60 mg/kg, 72 h, dose level Middle, time 3 day
# [3] = 60 mg/kg, […], dose level Middle, time 7 day
# [4] = 60 mg/kg, […], dose level Middle, time 14 day
# [5] = 60 mg/kg, […], dose level Middle, time 28 day
# [6] = 60 mg/kg, […], tissue Blood, dose level Middle, time 7 day
# [7] = 60 mg/kg, […], tissue Blood, dose level Middle, time 14 day
# [8] = 60 mg/kg, […], tissue Blood, dose level Middle, time 28 day
structure (smiles),measurement,setting,value
CCCCC1C(=O)N(c2ccccc2)N(c2ccccc2)C1=O [PHENYLBUTAZONE],Eos,[1],1.2%
same,Fbg,[1],234.2 mg/dL
same,Ht,[1],42.3%
same,Lym,[1],76.2%
same,MCHC,[1],33.5%
same,MCV,[1],63.4 fL
same,Mono,[1],6.4%
same,Neu,[1],16.4%
same,RBC,[1],667.4 x10_4/ul
same,Ret,[1],6.7%
same,WBC,[1],119.1 x10_2/uL
same,KIDNEY_L,[2],1 g
same,KIDNEY_R,[2],1 g
same,KIDNEY_TOTAL,[2],2 g
same,ALP,[2],957.4 IU/L
same,ALT,[2],35.6 IU/L
same,AST,[2],57.6 IU/L
same,BUN,[2],18.4 mg/dL
same,CRE,[2],0.6 mg/dL
same,Ca,[2],10.5 mg/dL
same,Cl,[2],105.6 meq/L
same,DBIL,[2],0.006 mg/dL
same,GLC,[2],199.4 mg/dL
same,IP,[2],7.9 mg/dL
same,K,[2],4.7 meq/L
same,PL,[2],167.6 mg/dL
same,RALB,[2],4 g/dL
same,TBIL,[2],0.3 mg/dL
same,TC,[2],92 mg/dL
same,TG,[2],136.8 mg/dL
same,TP,[2],6.1 g/dL
same,gamma-GTP,[2],1 IU/L
same,TERMINAL_BW,[3],272.5 g
same,TERMINAL_BW,[4],313.9 g
same,TERMINAL_BW,[5],407.1 g
same,APTT,[6],16.2 s
same,Bas,[6],0%
same,Eos,[6],0.4%
same,Fbg,[6],231 mg/dL
same,Ht,[6],42.2%
same,Lym,[6],86.2%
same,MCHC,[6],33.6%
same,MCV,[6],64.2 fL
same,Mono,[6],4.2%
same,Neu,[6],9%
same,PT,[6],11.7 s
same,RBC,[6],657.4 x10_4/ul
same,Ret,[6],5.4%
same,WBC,[6],186.6 x10_2/uL
same,APTT,[7],16.5 s
same,Bas,[7],0%
same,Eos,[7],0.6%
same,Fbg,[7],227.6 mg/dL
same,Hb,[7],14.9 g/dL
same,Ht,[7],44.5%
same,Lym,[7],86%
same,MCHC,[7],33.5%
same,MCV,[7],60.4 fL
same,Mono,[7],4%
same,Neu,[7],9.4%
same,RBC,[7],736.4 x10_4/ul
same,Ret,[7],4.4%
same,WBC,[7],167.1 x10_2/uL
same,APTT,[8],15.9 s
same,Bas,[8],0%
same,Eos,[8],0.6%
same,Fbg,[8],246.5 mg/dL
same,Hb,[8],15.3 g/dL
same,Ht,[8],45.9%
same,Lym,[8],86%
same,MCHC,[8],33.4%
same,MCV,[8],58.4 fL
same,Mono,[8],3%
same,RBC,[8],786.6 x10_4/ul
same,Ret,[8],2.6%
same,WBC,[8],129.4 x10_2/uL
same,KIDNEY_L,[3],1.1 g
same,KIDNEY_R,[3],1.1 g
same,KIDNEY_TOTAL,[3],2.2 g
same,KIDNEY_L,[4],1.3 g
same,KIDNEY_R,[4],1.3 g
same,KIDNEY_TOTAL,[4],2.6 g
same,KIDNEY_L,[5],1.4 g
same,KIDNEY_R,[5],1.4 g
same,KIDNEY_TOTAL,[5],2.9 g
same,ALP,[3],845.8 IU/L
same,ALT,[3],37.4 IU/L
same,AST,[3],65 IU/L
same,BUN,[3],20.8 mg/dL
same,CRE,[3],0.5 mg/dL
same,Ca,[3],10.7 mg/dL
same,Cl,[3],106.6 meq/L
same,DBIL,[3],0 mg/dL
same,GLC,[3],195.8 mg/dL
same,IP,[3],8.5 mg/dL
same,K,[3],5 meq/L
same,PL,[3],161 mg/dL
same,RALB,[3],4 g/dL
same,TBIL,[3],0.3 mg/dL
same,TC,[3],79 mg/dL
same,TG,[3],166.8 mg/dL
same,TP,[3],6.7 g/dL
same,gamma-GTP,[3],1.4 IU/L
same,ALP,[4],877.8 IU/L
same,ALT,[4],36.4 IU/L
same,AST,[4],65 IU/L
same,BUN,[4],20.8 mg/dL
same,CRE,[4],0.6 mg/dL
same,Ca,[4],10.6 mg/dL
same,Cl,[4],107 meq/L
same,DBIL,[4],0.002 mg/dL
same,GLC,[4],189.4 mg/dL
same,IP,[4],8.3 mg/dL
same,K,[4],4.5 meq/L
same,RALB,[4],4 g/dL
same,TBIL,[4],0.3 mg/dL
same,TC,[4],64 mg/dL
same,TG,[4],138 mg/dL
same,TP,[4],6.3 g/dL
same,gamma-GTP,[4],1.8 IU/L
same,ALP,[5],605.8 IU/L
same,ALT,[5],44.2 IU/L
same,AST,[5],70.8 IU/L
same,BUN,[5],22.2 mg/dL
same,CRE,[5],0.6 mg/dL
same,Ca,[5],10.7 mg/dL
same,Cl,[5],105.2 meq/L
same,DBIL,[5],0.006 mg/dL
same,GLC,[5],189.8 mg/dL
same,IP,[5],7.7 mg/dL
same,K,[5],4.6 meq/L
same,PL,[5],161.8 mg/dL
same,RALB,[5],4.3 g/dL
same,TBIL,[5],0.4 mg/dL
same,TC,[5],76.4 mg/dL
same,TG,[5],280.8 mg/dL
same,TP,[5],6.8 g/dL
same,gamma-GTP,[5],1.2 IU/L
same,TERMINAL_BW,"200 mg/kg, 72 h, dose level High, time 3 day",224.8 g
same,APTT,"200 mg/kg, 72 h, tissue Blood, dose level High, time 3 day",17.7 s
